Measured values reported in patent US9675591B2, “Methods for treating seizure disorders and pain” (THE REGENTS OF THE UNIVERSITY OF CALIFORNIA, priority 2013, dated 2017).

Key:
[1] = tested on: MES-induced seizures; assay: Maximal electroshock (MES) seizure test, mice (ASP, methylcellulose suspension); type: in vivo; conditions: Mus musculus, ip; mice, i.p., methylcellulose suspension, time of peak effect (SKA-19: 2 h); read-out: ED50, seizure protection in the MES test
Protocol: (§1) SKA-19 was tested under the auspices of the National Institutes of Health's Anticonvulsant Screening Program (ASP). Experiments were performed in male albino CF (Carworth Farms) No. 1 mice or Sprague-Dawley rats according to the established protocols of the ASP (White et al., 2002). SKA-19 was suspended in 0.5% methylcellulose and administered in a volume that permits accuracy of dosage without excessively contributing to total body fluid (0.01 ml/g body weight for mice and 0.04 ml/10 g body weight for rats).
(§2) Animals received an electrical stimulus of 0.2 s duration (50 mA in mice and 150 mA in rat at 60 Hz) delivered via corneal electrodes primed with an electrolyte solution containing 0.5% tetracaine. Animals were restrained by hand and released immediately after stimulation to permit observation of the seizure throughout its entire course. In the initial screens to identify anticonvulsant activity mice were tested at 30 minutes and 4 hours following doses of 3, 10, 30, 100 and 300 mg/kg of SKA-19 and rats tested at time intervals between 0.25 and 4 hours following a standard oral dose of 30 mg/kg. In the subsequent, more quantitative tests at least four doses of SKA-19 (n=8 per dose) were tested at the previously determined time of peak effect (TPE). Abolition of hindlimb tonic extension indicates the test compound's ability to inhibit MES-induced seizure spread. Tonic extension is considered abolished if the hind limbs are not fully extended at 180° with the body.

[2] = tested on: MES-induced seizures; assay: Maximal electroshock (MES) seizure test, rats (ASP, methylcellulose suspension); type: in vivo
Protocol: as §1, §2

[3] = tested on: MES-induced seizures; assay: MES seizure test, CF-1 mice, compounds given i.p. as solution; type: in vivo
Protocol: MES assays were performed at the Department of Neurology at the University of California with CF-1 mice. This study was approved by the University of California, Davis, Animal Use and Care Committee and conducted in accordance with the guidelines of Animal Use and Care of the National Institutes of Health and the University of California. For these assays, stock solutions of SKA-19 (5 mg/ml) were prepared in 5% CremophorEL (Sigma-Aldrich, St. Louis, Mo., USA) and 95% saline, diluted further with saline, and SKA-19 was administered i.p. in a volume of 10 ml/kg body weight. Animals were subjected to a 0.2-s, 60-Hz electrical stimulus through corneal electrodes (5 mm diameter stainless steel balls). The electroshock unit was adjusted to deliver a constant current of 50 mA. Immediately before stimulation, the corneal electrodes were wetted with saline to provide good electrical contact. Animals failing to show tonic hindlimb extension were scored as protected (Kokate et al., 1994).
The mouse maximal electroshock (MES) and 6 Hz seizure models were used. Motor toxicity was assessed using a modification of the horizontal screen test. ED50 values in the seizure models and TD50 values in the toxicity test were determined by nonlinear fitting of dose-response curves. […] Drugs solutions were injected intraperitoneally 10 min prior to administration of the electrical stimulus in a volume of 10 ml/kg body weight.

[4] = tested on: pentylenetetrazole-induced seizures; assay: Subcutaneous Metrazol seizure test (scMET); type: in vivo; conditions: mouse, in vivo
Protocol: A dose of subcutaneous pentylenetetrazole (Metrazole, MET) which induces convulsions in 97% of animals (CD97: 85 mg/kg mice or 56.4 mg/kg rats) was injected into a loose fold of skin at the neck. Animals were placed in isolation cages and observed for 30 min for the occurrence of clonic spasms persisting for at least 5 s.

[5] = tested on: 6-Hz psychomotor seizures; assay: 6-Hz psychomotor seizure test (ASP); type: in vivo, mice; conditions: Mus musculus, po, orally administered
Protocol: Seizures characterized by a minimal clonic phase followed by stereotyped automatistic behaviors (jaw chomping and whisker movement) were induced in mice by a low frequency (6 Hz), long-duration (3 s) stimulus. These seizures resemble automatistic behavior in patients with complex partial seizures. At varying times (0.25, 0.5, 1, 2, and 4 h) after drug treatment, individual mice (four at each time point) were challenged with sufficient current (32 or 44 mA at 6 Hz for 3 s) delivered through corneal electrodes to elicit a psychomotor seizure. Animals not displaying this behavior are considered protected.

[6] = tested on: CA1 pyramidal neurons; assay: Hippocampal slice recordings; type: cell-based, mouse; conditions: 10 μM, 1-s current injections (150 pA)
Protocol: Brain slice preparation was approved by the University of California, Irvine, Institutional Animal Care and Use Committee. Male C57BL/6 J mice (postnatal day 23) were anesthetized with halothane, decapitated, and brains transferred to an ice-cold, sucrose artificial cerebral spinal fluid (ACSF; Sigma-Aldrich). Hippocampal slices (300 μm) were prepared using a Leica VT1200S vibrating blade microtome (Leica Microsystems Inc., Buffalo Grove, Ill.). Slices were incubated at 33° C. in oxygenated (95% O2, 5% CO2) standard ACSF containing the following (mM) for at least 1 h before recordings: 126 NaCl, 2.5 KCl, 1.25 NaHPO4, 1.2 MgSO4, 10 glucose, 1.2 CaCl2, and 26 NaHCO3. Slices were submerged and continuously perfused at 2 ml/min with oxygenated ACSF at 33° C. during the current-clamp experiments. Voltage-clamp experiments were performed in the same ACSF but with 1 mM tetraethylammonium chloride (Sigma-Aldrich) and 0.5 μM tetrodotoxin (Sigma-Aldrich) added. Pyramidal CA1 neurons were visualized and identified with an upright microscope (Zeiss Axioskop Plus; Zeiss Jena, Germany) with infrared differential interference contrast optics. Recording pipettes (2-5 MΩ) were filled with intracellular solution containing (in mM): 126 K-gluconate; 4 KCl; 10 HEPES; 2 Mg-adenosine triphosphate; 0.3 Tris-guanosine triphosphate; 10 phosphocreatine, pH 7.20, 270-290 mOsm. In the current-clamp mode, depolarizing current pulses were applied from a membrane potential of −65 mV to evoke tonic firing activity. In the voltage-clamp mode, neurons were held at −55 mV and KCa currents elicited by 50-ms voltage steps to 10 mV, applied every 10 s. SKA-19 or NS309 were perfused for 10 min into the bath to allow for equilibrium. Recordings were performed in the whole-cell mode using a MultiClamp 700B amplifier (Molecular Devices), […] and sampled at 20 kHz with a Digidata 1322A digitizer (Molecular Devices). Data were acquired and analyzed with pClamp 10.2 software (Molecular Devices).

| Molecule | ED50 [1] | protection from MES induced seizures, initial screen ([2]; 30 mg/kg i.p.) | ED50 ([2]; Rattus norvegicus, oral (SKA-19: 4 h time point), read-out: ED50, seizure protection in the MES test) | duration of protection ([3]; 10 mg/kg i.p. as solution) | duration of protective activity ([3]; MES test, 10 mg/kg i.p. as solution) | ED50 ([3]; Mus musculus, ip, 10 min, i.p. as solution, 10 min time point, read-out: ED50, seizure protection in the MES test) | onset of protection from seizures after application ([3]; i.p. as solution) | activity in the scMET test [4] | ED50 ([5]; 32 mA, 0.5-h time point) | ED50 ([5]; 44 mA, 1-h time point) | termination of firing during the ongoing current train [6] | effect on AP firing frequency ([6]; holding potential -65 mV) |
| --- | --- | --- | --- | --- | --- | --- | --- | --- | --- | --- | --- | --- |
| Nc1nc2ccc(OC(F)(F)F)cc2s1 [riluzole, 2-amino-6-(trifluoromethoxy)benzothiazole, reference compound] | 4.07 mg/kg | completely protected | 2.64 mg/kg | ≤ 45 min | < 1 h | 5.37 mg/kg | ≤ 5 min | no significant activity | 10.1 mg/kg | 11.5 mg/kg |  |  |
| NS309 [reference compound] |  |  |  |  |  |  |  |  |  |  | did not terminate firing | reduced AP firing frequency |
